Where two headings read alike, the source gives them in different places.
How the values were obtained:
Capsicum annuum = Capsicum annuum hypocotyls with roots, flow cytometry (Experiment A1.3); format: in vivo
Excerpt: (§1) FIGS. 14A and B illustrates from left to right: Average number of nuclei per microliter of carrier fluid; Endoreplication index (EI), for defence (EIDEFENCE) and for growth (EIGROWTH) of the analysed plant samples from different plant systems exposed to the various treatments mentioned in the table. Data are expressed relative to the first listed condition of each experiment (reference). […] In particular, the toxic effect of Cd in T. nicotiana (see Experiment A1.1) was confirmed by the present invention since EIGROWTH decreased and EIDEFENCE increased in the plant seedlings. Mitigation of this Cd-induced growth inhibition by biochar was confirmed (see Experiment A1.2). […] To optimize the growing medium for A. thaliana, different dilutions of MS medium were tested (see Experiment A1.4). […] The toxic effects of ACC (see Experiment A1.8), IAA (see Experiment A1.9) and the osmoticum PEG (simulating drought stress, see Experiment A1.10) on A. thaliana were confirmed by the present invention since EIGROWTH decreased and EIDEFENCE increased.

[1] = system: D. caryophyllus seedlings; assay: D. caryophyllus seedlings in 48-well microtiter plate with 1/4 MS medium, flow cytometry; format: in vivo, Dianthus caryophyllus; conditions: 9 days
Description: Since results are promising for young seedlings of A. thaliana, it was also investigated whether the invention works in other plant species. To investigate whether the tipping point can also be determined using another plant species, tetraploid D. caryophyllus plants (i.e., basic ploidy level is 4C) were grown in a 48-well microtiter plate with ¼ MS medium and exposed to a Cd concentration range between 0 and 50 μM Cd. FIG. 13 illustrates flow cytometry data of D. caryophyllus seedlings exposed to a Cd range (10-50 μM Cd) and harvested after 9 days. Data are expressed relative to the control condition shown by the horizontal line (1.0). A) Average number of nuclei per microliter of carrier fluid; B) Endoreplication index (EI); C) Relative ploidy level; D) Relative ratios of consecutive ploidy levels; E) EIDEFENCE; and F) EIGROWTH. One-way ANOVA compared to the unexposed condition: * p<0.05.

Tobacco nicotiana = Tobacco nicotiana seedlings, flow cytometry (Experiments A1.1, A1.2); format: in vivo; conditions: plant seedlings, Cd, Experiment A1.1
Excerpt: as §1

A. thaliana leaves = A. thaliana leaves cultivated in a hydroponic system, flow cytometry; format: in vivo, Arabidopsis thaliana
Description: To investigate whether the tipping point can also be determined using another cultivation system, A. thaliana plants were grown in a hydroponic system and exposed to a Cd concentration range after 11 days. Since results are promising for young seedlings, it was also investigated whether the invention works in plants of different ages. Therefore, individual samples of the first and the third leaf were harvested at different time points.
LEAF 1: FIG. 11 illustrates flow cytometry data of the first A. thaliana leaf exposed to a Cd range (1-10 μM Cd) after 11 days and harvested at different time points (12-21 days). Data are expressed relative to the unexposed condition (0 μM Cd=1.0). A) Endoreplication index (EI); B) Relative ploidy level; C) Relative ratios of consecutive ploidy levels; D) EIDEFENCE; and E) EIGROWTH. One-way ANOVA compared to the unexposed condition: * p<0.05. […] As known from literature, the maximum ploidy level of young leaves is lower than in mature plants. This is confirmed by the different ploidy levels observed, see FIG. 11B: leaf 1 reaches ploidy levels up to 8C after 12 days, 16C after 14 days and the highest ploidy level of 32C was only reached after 18 days. This shift in maximum ploidy level is hypothesized to influence the tipping point. Therefore, at each age, the tipping point is identified. […] This is confirmed by increased 8C/16C ratios, see FIG. 11C.
LEAF 3: FIG. 12 illustrates flow cytometry data of the third A. thaliana leaf exposed to a Cd range (1-10 μM Cd) after 11 days and harvested at different time points (14-21 days). Data are expressed relative to the unexposed condition (0 μM Cd=1.0). A) Endoreplication index (EI); B) Relative ploidy level; C) Relative ratios of consecutive ploidy levels; D) EIDEFENCE; and E) EIGROWTH. One-way ANOVA compared to the unexposed condition: * p<0.05. […] The different ploidy levels observed confirm the lower maximum ploidy level in young leaves, see FIG. 12B: leaf 3 reaches ploidy levels up to 8C after 14 days, 16C after 18 days and 32C after 21 days. At day 14, leaf 3 was focused on normal cell division as evidenced by the elevated 2C ratio.

[2] = toxic treatments, Experiments A1.8-A1.11
[3] = Cd 10-50 μM, 4C as tipping point

With `NC1(C(=O)O)CC1` [ACC] the EIDEFENCE (Arabidopsis thaliana; [2]) was “increased” and the EIGROWTH (Arabidopsis thaliana; [2]) was “decreased”.
For `[Cd]` [Cd, cadmium], the toxic effect (Capsicum annuum) was “could be confirmed”, the EI ([1]; 50 μM Cd) was “decrease” and the nuclei concentration ([1]; 50 μM Cd) was “decrease”. The EIDEFENCE [1, 3] was “elevated values”, the EIGROWTH [1, 3] was “decreased values” and the EIDEFENCE (Tobacco nicotiana) was “increased”. For the same compound, the EIGROWTH (Tobacco nicotiana) was “decreased”, the EI (A. thaliana leaves; leaf 1, 1-10 μM Cd for 3 days or more (14-days-old plants or older)) was “dose-dependent decrease” and the EIDEFENCE (A. thaliana leaves; leaf 1, 1-10 μM Cd, FIG. 11D) was “elevated values”. For the same compound, the EIGROWTH (A. thaliana leaves; leaf 1, 1-10 μM Cd, FIG. 11E) was “decreased values”, the “EI or ploidy levels” value (A. thaliana leaves; leaf 1, one day of exposure to Cd (12-days-old plants)) was “did not show significant changes” and the EI (A. thaliana leaves; leaf 3, 1-10 μM Cd, FIG. 12A) was “dose-dependent decrease”. The EIDEFENCE (A. thaliana leaves; leaf 3, 1-10 μM Cd, FIG. 12D) was “elevated values”, the EIGROWTH (A. thaliana leaves; leaf 3, 1-10 μM Cd, FIG. 12E) was “decreased values” and the EIDEFENCE (Arabidopsis thaliana; 30 μM Cd or more, 10 days) was “significant and dose-dependent increases”. For the same compound, the “number of nuclei per microliter (plant growth)” value (Arabidopsis thaliana; Cd concentrations from 30 µM or higher, 10 days) was “significant decrease”, the EIDEFENCE (Arabidopsis thaliana; in vivo) was “dose-dependent increase” and the EIGROWTH (Arabidopsis thaliana; in vivo) was “less pronounced dose-dependent decrease”. The “growth (concentration of nuclei)” value (Arabidopsis thaliana; in vivo) was “dose-dependent growth retardation”, the “endoreplication index EI” value (Arabidopsis thaliana; seedlings in MS medium, Cd concentration range 0-50 μM, FIG. 10B) was “dose-dependent induction in endoreplication” and the EIDEFENCE (Arabidopsis thaliana; [2]) was “increased”. The EIGROWTH (Arabidopsis thaliana; [2]) was “decreased”.
With `C=C1C[C@]23C[C@@]1(O)CC[C@H]2[C@@]12C=C[C@H](O)[C@@](C)(C(=O)O1)[C@H]2[C@@H]3C(=O)O` [GA3] the “growth-stimulating effect by EI indices” value (Arabidopsis thaliana; Experiments A1.5-A1.7) was “EIGROWTH increased and/or EIDEFENCE decreased” and the “concentration at which a shift towards toxicity was detected (both EI indices showing an opposite trend)” value (Arabidopsis thaliana; increasing concentrations, Experiment A1.7) was 3 mg I-1.
With `O=C(O)Cc1c[nH]c2ccccc12` [IAA] the EIDEFENCE (Arabidopsis thaliana; [2]) was “increased” and the EIGROWTH (Arabidopsis thaliana; [2]) was “decreased”.
